Legend:
[1] = system: A. baumannii ATCC 17978 (SEN) and A. baumannii ATCC BAA-1605 (MDR); assay: microbe, parasite or virus in culture; format: cell-based, Acinetobacter baumannii; details: for MIC: Acinetobacter baumannii, across three biological replicates
Protocol: (§1) This study focused on multiple bacterial strains, as follows. For the FoR and ALE experiments, 2 strains per species were chosen: E. coli ATCC 25922, K. pneumoniae ATCC 10031, A. baumannii ATCC 17978, and P. aeruginosa ATCC BAA-3107 as sensitive (SEN) strains, and E. coli NCTC13846, K. pneumoniae ATCC 700603, A. baumannii ATCC BAA-1605 and P. aeruginosa LESB58 as multi-drug resistant (MDR) strains. Functional metagenomic screens were performed with E. coli ATCC 25922 and K. pneumoniae ATCC 10031 strains. To determine the dose-kill properties of the different antibiotics, an E. coli strain (ATCC 25922) expressing a yellow fluorescent protein (pZS2R, YFP, CHL^R) and a red fluorescent protein (pZS2R, mCherry, CHL^R) was used.
(§2) Unless otherwise indicated, cation-adjusted Mueller-Hinton Broth 2 (MHB, Millipore) medium was used throughout the study, except for SCH79797 (SCH).
(§3) A robotic liquid handling system was used to automatically prepare a 11 to 16-step serial dilution in 384-well microtiter plates (Greiner). A final concentration of 5 × 10^5 bacterial cells per mL were inoculated into each well containing 60 µL MHB medium. Bacterial cultures were incubated at 37 °C with continuous shaking (Infors shaker, 900 rpm with 3 mm throw) for 18 hours (2 replicates from each). Cell growth was monitored by measuring the optical density (OD600 values, using Biotek Synergy microplate reader). MIC was defined as the antibiotic concentration of complete growth inhibition (i.e., OD600 < 0.05). Relative MIC was calculated as follows:1 relativeMIC=MICevolved/MICancestor

[2] = system: E. coli ATCC 25922 (SEN) and E. coli NCTC13846 (MDR); assay: microbe, parasite or virus in culture; format: cell-based, Escherichia coli; details: for MIC: Escherichia coli, across three biological replicates
Protocol: as §1, §2, §3

[3] = system: E. coli ATCC 25922 (SEN) and E. coli NCTC13846 (MDR); assay: Adaptive laboratory evolution (ALE), relative MIC of evolved lines; format: cell-based, Escherichia coli; details: for Relative MIC (log10): EC-SEN (Escherichia coli ATCC 25922)
Source text: Using the same set of bacterial strains, we initiated adaptive laboratory evolution with the aim to maximize the level of antibiotic resistance in the populations achieved during a longer, but fixed time period.
An established protocol for adaptive laboratory evolution[46],[73] was followed to propagate populations with the highest resistance levels. Starting with an antibiotic concentration that caused approximately 50% growth inhibition, ten parallel populations for each antibiotic-ancestor strain combination were grown for 72 hours at 37 °C with continuous shaking (300 RPM). MHB broth medium was used unless stated otherwise. After each incubation, 20 µl of each culture was transferred to four new wells containing fresh medium with increasing antibiotic concentrations (0.5×, 1×, 1.5×, and 2.5× the previous concentration) in a chessboard layout to monitor potential cross-contamination. Growth was monitored by measuring OD600 using a Biotek Synergy 2 microplate reader, and only populations grown in the highest drug concentration with an OD600 > 0.2 were transferred further.
as §3, with “relativeMIC=MICevolved/MICancestor […]” for “relativeMIC=MICevolved/MICancestor”
Supplementary Figure 4. Resistance levels following adaptive laboratory evolution across bacterial strains. The level of resistance was measured as the fold change in relative MIC between evolved and ancestral strains after ~60 days of adaptive laboratory evolution. Data are grouped by bacterial strain (A. baumannii (AB), E. coli (EC), K. pneumoniae (KP), and P. aeruginosa (PA)) and categorized as either multidrug-resistant (MDR) or sensitive (SEN). Each data point represents a laboratory evolved line, and boxplots show the median, first and third quartiles, with whiskers indicating the 5th and 95th percentiles.
Statistical analysis was performed using two-sided Dunn’s post-hoc test with Benjamini-Hochberg correction for multiple comparisons (****/ ***/ **/ * indicates p < 0.0001/ 0.001/ 0.01/ 0.05). For detailed information on antibiotic and bacterial species, see Supplementary Table 1. For mode of action groups, refer to Table 1. Source data are provided as a Source Data file.
(1 picture or pasted object on this page, not shown here)

[4] = Acinetobacter baumannii ATCC 17978 (AB-SEN), ancestor strain
[5] = Acinetobacter baumannii ATCC 17978 (AB-SEN), ancestor strain, sheet fig 2a
[6] = Acinetobacter baumannii ATCC 17978 (AB-SEN)
[7] = Acinetobacter baumannii ATCC BAA-1605 (AB-MDR)
[8] = Escherichia coli ATCC 25922 (EC-SEN)
[9] = Escherichia coli NCTC 13846 (EC-MDR)
[10] = EC-SEN (ATCC 25922), evolved line 1, MIC of evolved line / MIC of ancestor
[11] = EC-SEN (ATCC 25922), evolved line 2, MIC of evolved line / MIC of ancestor
[12] = EC-SEN (ATCC 25922), evolved line 3, MIC of evolved line / MIC of ancestor
[13] = EC-SEN (ATCC 25922), evolved line 4, MIC of evolved line / MIC of ancestor
[14] = EC-SEN (ATCC 25922), evolved line 6, MIC of evolved line / MIC of ancestor
[15] = EC-SEN (ATCC 25922), evolved line 7, MIC of evolved line / MIC of ancestor
[16] = EC-SEN (ATCC 25922), evolved line 8, MIC of evolved line / MIC of ancestor
[17] = EC-SEN (ATCC 25922), evolved line 9, MIC of evolved line / MIC of ancestor
[18] = EC-SEN (ATCC 25922), evolved line 10, MIC of evolved line / MIC of ancestor
[19] = evolved line 2 adapted to the named antibiotic
[20] = evolved line 9 adapted to the named antibiotic
[21] = Escherichia coli ATCC 25922 (EC-SEN), evolved line 1
[22] = Escherichia coli ATCC 25922 (EC-SEN), evolved line 2
[23] = Escherichia coli ATCC 25922 (EC-SEN), evolved line 3
[24] = Escherichia coli ATCC 25922 (EC-SEN), evolved line 4
[25] = Escherichia coli ATCC 25922 (EC-SEN), evolved line 6
[26] = Escherichia coli ATCC 25922 (EC-SEN), evolved line 7
[27] = Escherichia coli ATCC 25922 (EC-SEN), evolved line 8
[28] = Escherichia coli ATCC 25922 (EC-SEN), evolved line 9
[29] = Escherichia coli ATCC 25922 (EC-SEN), evolved line 10
[30] = Escherichia coli ATCC 25922 (EC-SEN), ancestor strain
[31] = Escherichia coli ATCC 25922 (EC-SEN), ancestor strain, sheet fig 2a

For CN[C@@H]1[C@@H](O[C@H]2O[C@H](CO)[C@@H](N)[C@H](O)[C@H]2O)OC2C[C@@H](N)[C@@H](O[C@H]3[C@H](O)[C@@H](O)[C@H](N)C[C@@H]3N)OC2[C@@H]1O (stereo partly shown) [Apramycin], the MIC of ancestor [1, 4] was 4 µg/mL, the MIC of ancestor [1, 5] was 4 µg/mL and the MIC [1, 6] was 4 µg/mL. The MIC [1, 7] was 8 µg/mL, the MIC [2, 8] was 16 µg/mL and the MIC [2, 9] was 8 µg/mL.
Nc1nc(-n2cc(C(=O)O)c(=O)c3cc(F)c(N4CC(O)C4)c(Cl)c32)c(F)cc1F [Delafloxacin] showed an MIC of ancestor [1, 4] of 0.0625 µg/mL, an MIC of ancestor [1, 5] of 0.0625 µg/mL and an MIC [1, 6] of 0.0625 µg/mL. For the same molecule, the MIC [1, 7] was 8 µg/mL, the “Relative MIC” value [3, 10] was 128 and the “Relative MIC” value [3, 11] was 1024. For the same molecule, the “Relative MIC” value [3, 12] was 512, the “Relative MIC” value [3, 13] was 512 and the “Relative MIC” value ([3]; EC-SEN (ATCC 25922), evolved line 5, MIC of evolved line / MIC of ancestor) was 128. The “Relative MIC” value [3, 14] was 1024, the “Relative MIC” value [3, 15] was 2048 and the “Relative MIC” value [3, 16] was 256. The “Relative MIC” value [3, 17] was 2048, the “Relative MIC” value [3, 18] was 512 and the “Relative MIC (log10)” value [3, 19] was 3.0103. The “Relative MIC (log10)” value ([3]; evolved line 6 adapted to the named antibiotic) was 3.0103, the “Relative MIC (log10)” value ([3]; evolved line 7 adapted to the named antibiotic) was 3.311 and the “Relative MIC (log10)” value [3, 20] was 3.311. The “Relative MIC (log10)” value ([3]; evolved line 10 adapted to the named antibiotic) was 2.709, the “Relative MIC” value [3, 21] was 128 and the “Relative MIC” value [3, 22] was 1024. The “Relative MIC” value [3, 23] was 512, the “Relative MIC” value [3, 24] was 512 and the “Relative MIC” value ([3]; Escherichia coli ATCC 25922 (EC-SEN), evolved line 5) was 128. For the same molecule, the “Relative MIC” value [3, 25] was 1024, the “Relative MIC” value [3, 26] was 2048 and the “Relative MIC” value [3, 27] was 256. For the same molecule, the “Relative MIC” value [3, 28] was 2048, the “Relative MIC” value [3, 29] was 512 and the MIC of ancestor [2, 30] was 0.0312 µg/mL. The MIC of ancestor [2, 31] was 0.0312 µg/mL, the MIC [2, 8] was 0.0312 µg/mL and the MIC [2, 9] was 16 µg/mL.
C[C@H]1c2cccc(O)c2C(=O)C2=C(O)[C@]3(O)C(=O)C(C(N)=O)=C(O)[C@@H](N(C)C)[C@@H]3[C@@H](O)[C@@H]21 [Doxycycline] was tested, and the MIC of ancestor [1, 4] was 0.25 µg/mL, the MIC of ancestor [1, 5] was 0.25 µg/mL and the MIC [1, 6] was 0.25 µg/mL. For the same molecule, the MIC [1, 7] was 8 µg/mL, the “Relative MIC” value [3, 10] was 32 and the “Relative MIC” value [3, 11] was 16. The “Relative MIC” value [3, 12] was 32, the “Relative MIC” value [3, 13] was 128 and the “Relative MIC” value [3, 14] was 8. The “Relative MIC” value [3, 15] was 16, the “Relative MIC” value [3, 16] was 32 and the “Relative MIC” value [3, 17] was 16. For the same molecule, the “Relative MIC” value [3, 18] was 16, the “Relative MIC (log10)” value ([3]; evolved line 1 adapted to the named antibiotic) was 1.505 and the “Relative MIC (log10)” value [3, 19] was 1.204. For the same molecule, the “Relative MIC (log10)” value ([3]; evolved line 3 adapted to the named antibiotic) was 1.505, the “Relative MIC (log10)” value ([3]; evolved line 8 adapted to the named antibiotic) was 1.505 and the “Relative MIC (log10)” value [3, 20] was 1.204. The “Relative MIC” value [3, 21] was 32, the “Relative MIC” value [3, 22] was 16 and the “Relative MIC” value [3, 23] was 32. For the same molecule, the “Relative MIC” value [3, 24] was 128, the “Relative MIC” value [3, 25] was 8 and the “Relative MIC” value [3, 26] was 16. For the same molecule, the “Relative MIC” value [3, 27] was 32, the “Relative MIC” value [3, 28] was 16 and the “Relative MIC” value [3, 29] was 16. The MIC of ancestor [2, 30] was 1 µg/mL, the MIC of ancestor [2, 31] was 1 µg/mL and the MIC [2, 8] was 1 µg/mL. The MIC [2, 9] was 16 µg/mL.
Molecule C[C@@H](O)[C@H]1C(=O)N2C(C(=O)O)=C(S[C@@H]3CN[C@H](C(=O)N(C)C)C3)[C@H](C)[C@H]12 [Meropenem] has an MIC of ancestor ([1]; AB-SEN, Acinetobacter baumannii ATCC 17978, ancestor strain) of 1 µg/mL, an MIC of ancestor [1, 5] of 1 µg/mL and an MIC [1, 6] of 1 µg/mL. The MIC [1, 7] was over 32 µg/mL, the MIC of ancestor ([2]; E. coli NCTC 13846 (EC-MDR), ancestor strain, sheet fig 2a) was 0.0156 µg/mL and the MIC of ancestor ([2]; EC-MDR, Escherichia coli NCTC 13846, ancestor strain) was 0.0156 µg/mL. The MIC of ancestor ([2]; EC-SEN, Escherichia coli ATCC 25922, ancestor strain) was 0.0312 µg/mL, the MIC of ancestor [2, 31] was 0.0312 µg/mL and the MIC [2, 8] was 0.0312 µg/mL. For the same molecule, the MIC [2, 9] was under 0.0312 µg/mL.
COc1c(N2C[C@@H]3CCCN[C@@H]3C2)c(F)cc2c(=O)c(C(=O)O)cn(C3CC3)c12 [Moxifloxacin] was tested, and the MIC [1, 7] was 32 µg/mL, the MIC of ancestor ([2]; Escherichia coli ATCC 25922 (EC-SEN), ancestor) was 0.0312 µg/mL and the MIC of ancestor [2, 31] was 0.0312 µg/mL. The MIC [2, 8] was 0.0312 µg/mL and the MIC [2, 9] was over 32 µg/mL.

From PMC11845477, “Exploring the principles behind antibiotics with limited resistance” (Nature Communications, 2025)
